Experimental data: US20160200743A1, “BORON-CONTAINING SMALL MOLECULES AS ANTI-INFLAMMATORY AGENTS” (ANACOR PHARMACEUTICALS, INC., priority 2013, published 2016)

These molecules were tested against Human PDE4 (PDE4B2 truncated) (Homo sapiens, UniProt Q07343) (assay: Measurement of Phosphodiesterase 4 (PDE4) inhibition, zinc and barium precipitation method with 3H-cAMP). Conditions: PDE4B2 truncated catalytic domain, 0.3 pM enzyme, 20 min pre-incubation, 30° C. for 6 minutes.
Assay type: biochemical
Description: Human PDE4 enzymatic activity was assayed using the zinc and barium precipitation method of Saldou, N. et at (1998: Cell Signal, vol 10, No. 6, pp 427-440). The assay was performed in 96-well v-bottom plates (BrandPlates, Wertheim, Germany). PDE4B2 truncated is the catalytic domain including the UCR2 and a portion of the UCR1 domain of PDE4B2 (23.4 mg/mL) from Proteros Biostructures. Final concentration of enzyme in the assay was 0.3 pM. Stocks of the tested compounds were prepared in 100% DMSO at a concentration of 40 mM. The 105-μL reaction volume consisted of 45 mM Tris-HCl, pH 7.5, 12.5 mM MgSO4, 1.5 μM […] (Sigma, St Louis, Mo.) supplemented with 0.15 μM ^3H-cAMP (Perkin Elmer, Waltham, Mass.). Compounds were pre-incubated with enzyme at room temperature for 20 min prior to initiating the reaction by adding substrate (cAMP supplemented with ^3H-cAMP). After incubation at 30° C. for 6 minutes, the reaction was stopped by the addition of 50 μL fresh made 21.5 mM ZnSO4.7H2O (Alfa Aesar, Ward Hill, Mass.) containing 5 mM AMP as a co-precipitant. Total AMP was precipitated by the addition of 50 μL 17.5 mM Ba(OH)2, prepared fresh daily in autoclaved MilliQ water. 180 uL of well-mixed precipitate was transferred and collected by filtration (Millipore Multiscreen; MSFBN6B50). The plates were washed five times with cold wash solution (1 mM NaOH, 100 mM NaCl) and dried for 30 min to 1 hour at 65±10° C. or overnight at room temperature. The bottoms of plates were sealed with clear tapes (Millipore Co-operation, Billerica, Mass.) and 50±10 μL of scintillation cocktail (Perkin Elmer Waltham, Mass.) was added. The plates were top sealed and radioactivity was measured with scintillation counter.

Chain of Human PDE4 (PDE4B2 truncated) (Q07343 212-659 limits assumed): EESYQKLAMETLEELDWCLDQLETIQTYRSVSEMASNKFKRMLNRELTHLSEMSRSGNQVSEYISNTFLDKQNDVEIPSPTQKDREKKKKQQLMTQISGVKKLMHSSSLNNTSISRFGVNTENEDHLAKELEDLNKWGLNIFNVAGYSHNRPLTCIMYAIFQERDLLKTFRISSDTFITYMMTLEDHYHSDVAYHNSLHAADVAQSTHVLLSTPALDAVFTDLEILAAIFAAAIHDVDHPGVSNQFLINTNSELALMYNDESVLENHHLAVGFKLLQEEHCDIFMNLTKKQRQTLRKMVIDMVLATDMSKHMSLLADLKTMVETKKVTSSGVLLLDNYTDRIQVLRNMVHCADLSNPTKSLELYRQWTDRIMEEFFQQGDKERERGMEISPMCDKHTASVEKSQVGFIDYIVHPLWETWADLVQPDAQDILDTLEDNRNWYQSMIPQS

IC50	SMILES
427 nM	N#Cc1ccc(C(=O)c2ccc3c(c2)COB3O)cc1 [A, 4-(1-hydroxy-1,3-dihydrobenzo[c][1,2]oxaborole-5-carbonyl)benzonitrile]
3090 nM	N#Cc1ccc(C(O)c2ccc3c(c2)COB3O)cc1 (stereo not drawn) [B, 4-(hydroxy(1-hydroxy-1,3-dihydrobenzo[c][1,2]oxaborol-5-yl)methyl)benzonitrile]
47 nM	N#Cc1ccc([S+]([O-])c2ccc3c(c2)COB3O)cc1 (stereo not drawn) [D, 4-(1-hydroxy-1,3-dihydrobenzo[c][1,2]oxaborol-5-ylsulfinyl)benzonitrile]
